Measurements reported in patent US20180000744A1, “NANOENCAPSULATED COMPOSITIONS” (Georgia Southern Research and Service Foundation, Inc., priority 2016, published 2018).

Test system: Human prostatic cancer cell PC3
Assay: In vitro cytotoxicity / biocompatibility test, MTS assay
Type: cell-based
Details: 5 μM initial drug concentration in the media, 48 hours
Description: Human prostatic cancer cell PC3 were used to test the biocompatibility and cytotoxicity of FU loaded PCL nanofibers. Human prostatic cancer cell derived from metastatic site (bone) was purchased from ATCC, USA. 57 ml of fetal bovine serum (USA origin purchased from Sigma Aldrich), 7 ml of Penicillin-Streptomycin (Life Technologies) and 6 ml of HEPES (Life Technologies) was added to 500 ml RPMI-1640 medium (Fisher Scientific). This media is called R+ media. 96 well plate were used to grow PC3 cells (sterile and flat bottom type purchased from fisher scientific). 100 μL of PC3 cells at 8×10^4 cells/ml were added on each wells of 96 well plate for all tests. PC3 cells were incubated at 37° C. in a humidified 5% CO2 atmosphere for 24 hours before performing any test. […]
The cytotoxicity of NFs set A and D was assessed. […]
96 well plates were incubated at 37° C. in a humidified, 5% CO2 atmosphere for 48 hours to give sufficient time for the fluorouracil to inhibit essential biosynthetic process of the PC3 cells and thus cause cell death. […] Well plates were kept again in CO2 incubator for 3 hours and then their absorbance were measured at 490 nm using UV-Vis spectrometer. Absorbance of cells with different concentration of drug was compared with the absorbance of PC3 cells with no drug to determine the cell viability. […]

**Q.** Which alive cells does the source give for `O=c1[nH]cc(F)c(=O)[nH]1` [pristine FU, 5-Fluorouracil] here?
**A.** The alive cells was 43%.
